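Briefly, cells in 96-well plates were exposed to five compound concentrations for 48 h, and endpoints were estimated by linear interpolation. TGI marks complete inhibition of growth.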
How the values were obtained:
Assay in all cases: growth of human tumour cells (NCI), 48 h
MCF7 breast = test system: MCF7 breast
MOLT-4 leukemia = test system: MOLT-4 leukemia
EKVX NSCLC = test system: EKVX NSCLC
UACC-62 melanoma = test system: UACC-62 melanoma
HCT-15 colon = test system: HCT-15 colon
IGROV1 ovarian = test system: IGROV1 ovarian
A549 NSCLC = test system: A549 NSCLC
NCI-H23 lung = test system: NCI-H23 lung
HCC-2998 colon = test system: HCC-2998 colon
HOP-92 NSCLC = test system: HOP-92 NSCLC
K-562 leukemia = test system: K-562 leukemia
A498 renal = test system: A498 renal

| SMILES | TGI (MCF7 breast) [µM] | TGI (MOLT-4 leukemia) [µM] | TGI (EKVX NSCLC) [µM] | TGI (UACC-62 melanoma) [µM] | TGI (HCT-15 colon) [µM] | TGI (IGROV1 ovarian) [µM] | TGI (A549 NSCLC) [µM] | TGI (NCI-H23 lung) [µM] | TGI (HCC-2998 colon) [µM] | TGI (HOP-92 NSCLC) [µM] | TGI (K-562 leukemia) [µM] | TGI (A498 renal) [µM] |
| --- | --- | --- | --- | --- | --- | --- | --- | --- | --- | --- | --- | --- |
| O=C(CCc1cc(O)cc(O)c1)NCCc1cc(O)cc(O)c1 | > 100 | > 100 | > 100 | > 100 | > 100 | > 100 | > 100 | > 100 | > 100 | > 100 | > 100 | > 100 |
| O=[N+]([O-])c1ccc(S(=O)(=O)N=Ic2ccccc2)cc1 | > 100 | > 100 | > 100 | > 100 | > 100 | > 100 | > 100 | > 100 | > 100 | > 100 | > 100 | > 100 |
| CC(C)(C)c1cc(C(=O)/C=C/C=C/c2ccccc2)cc(C(C)(C)C)c1O | > 86.6 | > 63.1 | > 100 | > 71.4 | > 67.1 | > 100 | 47.3 | > 100 | 28.2 | > 100 | > 100 | > 80.7 |
| CSc1ncnc2c1cnn2CCCCO | > 100 | > 100 | > 100 | > 100 | > 100 | > 100 | > 100 | > 100 | > 100 | > 100 | > 100 | > 100 |
| COc1cc(C2SCC(=O)N2c2ccc(Cl)c(Cl)c2)cc(OC)c1OC (stereo unspecified) | > 100 | > 67 | > 87.9 | > 21.9 | > 100 | > 100 | > 100 | > 100 | > 100 | > 100 | > 100 | > 100 |
| CC(C)(C)C(=O)OC(N)/C=C/c1ccccc1 (stereo unspecified) | > 100 | > 100 | > 100 | > 100 | > 100 | > 100 | > 100 | > 100 | > 100 | > 100 | – | > 100 |
| C#CCN(CC#C)C(=O)C(=O)c1c[nH]c2ccc(OC)cc12 | 34.7 | – | > 100 | 42.7 | 29.5 | > 100 | 68.5 | 50.5 | 31 | 33.2 | 33.9 | 29.5 |
| CC1C[C@]2(C)C(=O)Nc3ccccc3[C@@H]2Nc2ccccc21 (stereo partly specified) | 84.9 | 59.2 | 81.8 | 45.3 | > 100 | 78.2 | > 100 | 54.8 | 88.5 | 27.6 | > 100 | 53.4 |
| COc1ccc(-c2nc(SCC(=O)N/N=C/c3ccc(O)c(OC)c3)[nH]c2-c2ccc(OC)cc2)cc1 | 33.6 | – | > 100 | 27.4 | 82.8 | – | > 100 | 49.2 | 32.3 | 66.1 | 57.8 | 33.2 |
| CC12CC(C#N)(C#N)C(C#N)(CO1)C(=N)O2 (stereo unspecified) | > 100 | > 100 | > 100 | > 100 | > 100 | > 100 | > 100 | > 100 | > 100 | > 100 | > 100 | > 100 |
| CC(C)(C)NC(=O)N1N=C(c2ccccc2)C1c1ccccc1 (stereo unspecified) | > 100 | – | > 100 | > 100 | 75.2 | > 100 | > 100 | > 100 | > 100 | 65 | – | > 100 |
| COc1ccc(C(OCC2OC(n3cc(C)c(=O)[nH]c3=O)CC2n2cc(Cn3cc(Br)c(=O)[nH]c3=O)nn2)(c2ccccc2)c2ccccc2)cc1 (stereo unspecified) | > 100 | > 100 | > 100 | > 100 | > 100 | > 100 | > 100 | > 100 | > 100 | > 100 | – | > 100 |
| CC(NNC(=O)CC(=O)N(C(=O)c1ccccc1)c1ccc(Cl)cc1)c1cc2ccccc2oc1=O (stereo unspecified) | > 10 | > 10 | > 10 | > 10 | > 10 | > 10 | > 10 | > 10 | > 10 | > 10 | > 10 | > 10 |
| O=[N+]([O-])c1cc2c(c3nonc13)OCCCCO2 | 24.2 | 9.79 | 38.5 | 21.5 | 13.7 | 21.2 | 33.5 | 25.2 | 35.5 | 26.3 | 17.3 | 47.6 |
| CCOC(=O)C1=C(N)Oc2ccc(Br)cc2C1C(C#N)C(=O)OCC (stereo unspecified) | 89.4 | 90.9 | > 100 | 83.5 | 40.9 | 36.5 | 70.5 | 47.3 | 32.7 | 37 | > 100 | > 100 |
| C[C@H]1C2Cc3cc(N)ccc3[C@@]1(C)CCN2CCc1ccccc1 | 94.1 | > 100 | > 100 | > 100 | > 100 | > 100 | > 100 | > 100 | 21.7 | 90.9 | > 100 | > 100 |
| COc1ccc(C(OC(C)=O)C2C(=C(C#N)C#N)c3ccccc3C2=C(C#N)C#N)cc1 (stereo unspecified) | > 100 | 99.8 | > 100 | – | > 100 | > 100 | – | 85.7 | 59.9 | > 100 | > 100 | 58.6 |
| CN1C(=O)C(CC=O)(C(C)(C)C)c2ccccc21 (stereo unspecified) | > 100 | > 100 | – | > 100 | > 100 | – | > 100 | > 100 | > 100 | > 100 | > 100 | > 100 |
| Cc1ccc(-c2c3c(n(C4OC(CO)C(O)C(O)C4O)c(=S)c2C#N)CC(C)(C)CC3=O)cc1 (stereo unspecified) | > 100 | > 100 | – | > 100 | > 100 | > 100 | > 100 | > 100 | > 100 | > 100 | > 100 | > 100 |
